The subject of assay [1] is HCV genotype 1b (Con-1) subgenomic replicon with NS3 resistance mutation D168V in Huh-7 cells. As to the kind of experiment: HCV replicon RNA replication assay (NS3 protease variants), genotype 1b D168V. The format is cell-based. Particulars: Hepatitis C virus.
Assay [2] has as its system HCV genotype 1a (strain H77) subgenomic replicon with NS3 resistance mutation R155K in Huh-7 cells. As to the kind of experiment: HCV replicon RNA replication assay (NS3 protease variants), genotype 1a R155K. Type of assay: cell-based. As to conditions: Hepatitis C virus. In general terms: A replicon is a self-replicating genome or part of one, used to study replication in cells.

Where [3] appears, read: Huh-7, 72 h, read-out: D168V 1b EC50 (nM).
[4] abbreviates: Huh-7, 72 h, read-out: R155K 1a EC50 (nM).

Read-outs that look alike come from different tables or passages of the source.

This passage reports EC50 results from patent US20110294778A1, “HEPATITIS C INHIBITOR COMPOUNDS” (priority 2009, published 2011).

Broadly, the EC50 is the midpoint of the concentration-response curve. On to `COc1ccc2c(O[C@@H]3C[C@H]4C(=O)N[C@]5(C(=O)NS(=O)(=O)C6(C)CC6)C[C@H]5/C=C\CCCCC[C@H](NC(=O)N(C)C)C(=O)N4C3)cc(OC(C)C)nc2c1C` [Compound 2008, (2R,6S,12Z,13aS,14aR,16aS)-6-[(dimethylcarbamoyl)amino]-2-{[7-methoxy-8-methyl-2-(propan-2-yloxy)quinolin-4-yl]oxy}-N-[(1-methylcyclopropyl)sulfonyl]-5,16-dioxo-1,2,3,6,7,8,9,10,11,13a,14,15,16,16a-tetradecahydrocyclopropa[e]pyrrolo[1,2-a][1,4]diazacyclopentadecine-14a(5H)-carboxamide], for which the concentration for a half-maximal effect (EC50) in assay [1] (setting [3]) turned out to be 1.5 nM; in assay [2] (setting [4]), 6.7 nM.
Taken in the same sequence, the figures for `COc1ccc2c(O[C@@H]3C[C@H]4C(=O)N[C@]5(C(=O)NS(=O)(=O)C6CC6)C[C@H]5/C=C\CCCCC[C@H](NC(=O)N5CCC5)C(=O)N4C3)cc(OC(C)C)nc2c1C` [Compound 2005, (2R,6S,12Z,13aS,14aR,16aS)-6-[(azetidin-1-ylcarbonyl)amino]-N-(cyclopropylsulfonyl)-2-{[7-methoxy-8-methyl-2-(propan-2-yloxy)quinolin-4-yl]oxy}-5,16-dioxo-1,2,3,6,7,8,9,10,11,13a,14,15,16,16a-tetradecahydrocyclopropa[e]pyrrolo[1,2-a][1,4]diazacyclopentadecine-14a(5H)-carboxamide] were 0.82 nM and 4.8 nM.
Consider `COc1ccc2c(O[C@@H]3C[C@H]4C(=O)N[C@]5(C(=O)NS(=O)(=O)C6(C)CC6)C[C@H]5/C=C\CCCCC[C@H](NC(=O)N5CCC5)C(=O)N4C3)cc(OCC(F)(F)F)nc2c1C` [Compound 2017, (2R,6S,12Z,13aS,14aR,16aS)-6-[(azetidin-1-ylcarbonyl)amino]-2-{[7-methoxy-8-methyl-2-(2,2,2-trifluoroethoxy)quinolin-4-yl]oxy}-N-[(1-methylcyclopropyl)sulfonyl]-5,16-dioxo-1,2,3,6,7,8,9,10,11,13a,14,15,16,16a-tetradecahydrocyclopropa[e]pyrrolo[1,2-a][1,4]diazacyclopentadecine-14a(5H)-carboxamide], for which the EC50 was 1.1 nM in assay [1] (setting [3]) and 6.3 nM in assay [2] (setting [4]).
Taken in the same sequence, the figures for `Cc1ccc(C(=O)N[C@H]2CCCCC/C=C\[C@@H]3C[C@@]3(C(=O)NS(=O)(=O)C3CC3)NC(=O)[C@@H]3C[C@@H](Oc4cc(OC(C)C)nc5c(C)c(O)ccc45)CN3C2=O)s1` [Compound 1036, (2R,6S,12Z,13aS,14aR,16aS)-N-(cyclopropylsulfonyl)-2-{[7-hydroxy-8-methyl-2-(propan-2-yloxy)quinolin-4-yl]oxy}-6-{[(5-methylthiophen-2-yl)carbonyl]amino}-5,16-dioxo-1,2,3,6,7,8,9,10,11,13a,14,15,16,16a-tetradecahydrocyclopropa[e]pyrrolo[1,2-a][1,4]diazacyclopentadecine-14a(5H)-carboxamide] were 1.3 nM and 3.2 nM.
As to `Cc1ccc(C(=O)N[C@H]2CCCCC/C=C\[C@@H]3C[C@@]3(C(=O)NS(=O)(=O)C3(C)CC3)NC(=O)[C@@H]3C[C@@H](Oc4cc(OC(C)C)nc5c(C)c(O)ccc45)CN3C2=O)s1` [Compound 1033, (2R,6S,12Z,13aS,14aR,16aS)-2-{[7-hydroxy-8-methyl-2-(propan-2-yloxy)quinolin-4-yl]oxy}-N-[(1-methylcyclopropyl)sulfonyl]-6-{[(5-methylthiophen-2-yl)carbonyl]amino}-5,16-dioxo-1,2,3,6,7,8,9,10,11,13a,14,15,16,16a-tetradecahydrocyclopropa[e]pyrrolo[1,2-a][1,4]diazacyclopentadecine-14a(5H)-carboxamide], the EC50 in assay [1] (setting [3]) was 0.58 nM; in assay [2] (setting [4]) it was 0.77 nM.
For `CCOc1cc(O[C@@H]2C[C@H]3C(=O)N[C@]4(C(=O)NS(=O)(=O)C5CC5)C[C@H]4/C=C\CCCCC[C@H](NC(=O)c4ccn(C)n4)C(=O)N3C2)c2ccc(OC)c(Br)c2n1` [Compound 1017, (2R,6S,12Z,13aS,14aR,16aS)-2-[(8-bromo-2-ethoxy-7-methoxyquinolin-4-yl)oxy]-N-(cyclopropylsulfonyl)-6-{[(1-methyl-1H-pyrazol-3-yl)carbonyl]amino}-5,16-dioxo-1,2,3,6,7,8,9,10,11,13a,14,15,16,16a-tetradecahydrocyclopropa[e]pyrrolo[1,2-a][1,4]diazacyclopentadecine-14a(5H)-carboxamide], the EC50 is 1.1 nM in assay [1] (setting [3]) and 9.5 nM in assay [2] (setting [4]).
`COc1ccc2c(O[C@@H]3C[C@H]4C(=O)N[C@]5(C(=O)NS(=O)(=O)C6(C)CC6)C[C@H]5/C=C\CCCCC[C@H](NC(=O)N5CC(OC)C5)C(=O)N4C3)cc(OC(C)C)nc2c1C` [Compound 2003, (2R,6S,12Z,13aS,14aR,16aS)-6-{[(3-methoxyazetidin-1-yl)carbonyl]amino}-2-{[7-methoxy-8-methyl-2-(propan-2-yloxy)quinolin-4-yl]oxy}-N-[(1-methylcyclopropyl)sulfonyl]-5,16-dioxo-1,2,3,6,7,8,9,10,11,13a,14,15,16,16a-tetradecahydrocyclopropa[e]pyrrolo[1,2-a][1,4]diazacyclopentadecine-14a(5H)-carboxamide]: the half-maximal effective concentration (EC50) in assay [1] (setting [3]) was 0.47 nM; in assay [2] (setting [4]), 9.1 nM.
For `COc1ccc2c(O[C@@H]3C[C@H]4C(=O)N[C@]5(C(=O)NS(=O)(=O)C6(C)CC6)C[C@H]5/C=C\CCCCC[C@H](NC(=O)N5CCC(F)(F)C5)C(=O)N4C3)cc(OC(C)C)nc2c1C` [Compound 2004, (2R,6S,12Z,13aS,14aR,16aS)-6-{[(3,3-difluoropyrrolidin-1-yl)carbonyl]amino}-2-{[7-methoxy-8-methyl-2-(propan-2-yloxy)quinolin-4-yl]oxy}-N-[(1-methylcyclopropyl)sulfonyl]-5,16-dioxo-1,2,3,6,7,8,9,10,11,13a,14,15,16,16a-tetradecahydrocyclopropa[e]pyrrolo[1,2-a][1,4]diazacyclopentadecine-14a(5H)-carboxamide], the EC50 in assay [1] (setting [3]) worked out at 1.6 nM; in assay [2] (setting [4]), 8.2 nM.
Take `CC[C@@H]1C[C@]1(NC(=O)[C@@H]1C[C@@H]2CN1C(=O)[C@H](C(C)(C)C)NC(=O)OCC(C)(C)CCCCc1cccc3c1CN(C3)C(=O)O2)C(=O)NS(=O)(=O)C1CC1` [reference compound]: the half-maximal effective concentration (EC50) in assay [1] (Huh-7, read-out: D168V 1b Ec50 (nM)) is 4400 nM; in assay [2] (Huh-7, read-out: R155K 1a Ec50 (nM)), 1200 nM.
In the case of `COc1ccc2c(O[C@@H]3C[C@H]4C(=O)N[C@]5(C(=O)NS(=O)(=O)C6(C)CC6)C[C@H]5/C=C\CCCCC[C@H](NC(=O)c5ccn(C)n5)C(=O)N4C3)cc(OC3CC3)nc2c1C` [Compound 1028, (2R,6S,12Z,13aS,14aR,16aS)-2-{[2-(cyclopropyloxy)-7-methoxy-8-methylquinolin-4-yl]oxy}-N-[(1-methylcyclopropyl)sulfonyl]-6-{[(1-methyl-1H-pyrazol-3-yl)carbonyl]amino}-5,16-dioxo-1,2,3,6,7,8,9,10,11,13a,14,15,16,16a-tetradecahydrocyclopropa[e]pyrrolo[1,2-a][1,4]diazacyclopentadecine-14a(5H)-carboxamide], the concentration for a half-maximal effect (EC50) stood at 0.37 nM in assay [1] (setting [3]) and 3.7 nM in assay [2] (setting [4]).
Turning to `COc1ccc2c(O[C@@H]3C[C@H]4C(=O)N[C@]5(C(=O)NS(=O)(=O)C6(C)CC6)C[C@H]5/C=C\CCCCC[C@H](NC(=O)N5CCC5)C(=O)N4C3)cc(OC3CC3)nc2c1C` [Compound 2010, (2R,6S,12Z,13aS,14aR,16aS)-6-[(azetidin-1-ylcarbonyl)amino]-2-{[2-(cyclopropyloxy)-7-methoxy-8-methylquinolin-4-yl]oxy}-N-[(1-methylcyclopropyl)sulfonyl]-5,16-dioxo-1,2,3,6,7,8,9,10,11,13a,14,15,16,16a-tetradecahydrocyclopropa[e]pyrrolo[1,2-a][1,4]diazacyclopentadecine-14a(5H)-carboxamide], the EC50 in assay [1] (setting [3]) amounted to 0.66 nM; in assay [2] (setting [4]), 6.4 nM.
With `COc1ccc2c(O[C@@H]3C[C@H]4C(=O)N[C@]5(C(=O)NS(=O)(=O)C6(C)CC6)C[C@H]5/C=C\CCCCC[C@H](NC(=O)N(C)C)C(=O)N4C3)cc(OC3CC3)nc2c1C` [Compound 2012, (2R,6S,12Z,13aS,14aR,16aS)-2-{[2-(cyclopropyloxy)-7-methoxy-8-methylquinolin-4-yl]oxy}-6-[(dimethylcarbamoyl)amino]-N-[(1-methylcyclopropyl)sulfonyl]-5,16-dioxo-1,2,3,6,7,8,9,10,11,13a,14,15,16,16a-tetradecahydrocyclopropa[e]pyrrolo[1,2-a][1,4]diazacyclopentadecine-14a(5H)-carboxamide], the 50% effective concentration (EC50) came to 1.8 nM in assay [1] (setting [3]) and 9.9 nM in assay [2] (setting [4]).
Regarding `CCOc1cc(O[C@@H]2C[C@H]3C(=O)N[C@]4(C(=O)NS(=O)(=O)C5(C)CC5)C[C@H]4/C=C\CCCCC[C@H](NC(=O)c4ccn(CC(F)(F)F)n4)C(=O)N3C2)c2ccc(OC)c(C)c2n1` [Compound 1029, (2R,6S,12Z,13aS,14aR,16aS)-2-[(2-ethoxy-7-methoxy-8-methylquinolin-4-yl)oxy]-N-[(1-methylcyclopropyl)sulfonyl]-5,16-dioxo-6-({[1-(2,2,2-trifluoroethyl)-1H-pyrazol-3-yl]carbonyl}amino)-1,2,3,6,7,8,9,10,11,13a,14,15,16,16a-tetradecahydrocyclopropa[e]pyrrolo[1,2-a][1,4]diazacyclopentadecine-14a(5H)-carboxamide], the EC50 amounted to 0.37 nM in assay [1] (setting [3]) and 6 nM in assay [2] (setting [4]).
For `CC(C)Oc1cc(O[C@@H]2C[C@H]3C(=O)N[C@]4(C(=O)NS(=O)(=O)C5(C)CC5)C[C@H]4/C=C\CCCCC[C@H](NC(=O)c4ccn(C)n4)C(=O)N3C2)c2ccc(F)c(F)c2n1` [Compound 1008, (2R,6S,12Z,13aS,14aR,16aS)-2-{[7,8-difluoro-2-(propan-2-yloxy)quinolin-4-yl]oxy}-N-[(1-methylcyclopropyl)sulfonyl]-6-{[(1-methyl-1H-pyrazol-3-yl)carbonyl]amino}-5,16-dioxo-1,2,3,6,7,8,9,10,11,13a,14,15,16,16a-tetradecahydrocyclopropa[e]pyrrolo[1,2-a][1,4]diazacyclopentadecine-14a(5H)-carboxamide], the 50% effective concentration (EC50) in assay [1] (setting [3]) worked out at 0.35 nM; in assay [2] (setting [4]), 2.9 nM.
